According to PubChem BioAssay (NCI):
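Interpolation was linear, between the two tested concentrations surrounding the appropriate level; five concentrations were tested over 48 hours in 96-well plates. GI50 is the concentration that inhibits growth by half. At the TGI there is no net growth.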

What was measured:
Test in all cases: NCI anticancer screen, dose series, 48 h
[1] = tested on: OVCAR-4 ovarian
[2] = tested on: BT-549 breast
[3] = tested on: CCRF-CEM leukemia
[4] = tested on: MDA-MB-231 breast
[5] = tested on: UACC-62 melanoma
[6] = tested on: SK-MEL-28 melanoma
[7] = tested on: A549 NSCLC
[8] = tested on: MCF7 breast
[9] = tested on: OVCAR-5 ovarian
[10] = tested on: NCI-H460 lung
[11] = tested on: CAKI-1 renal
[12] = tested on: 786-0 renal
[13] = tested on: NCI/ADR-RES ovarian
[14] = tested on: SK-OV-3 ovarian
[15] = tested on: MOLT-4 leukemia
[16] = tested on: EKVX NSCLC
[17] = tested on: OVCAR-8 ovarian
[18] = tested on: PC-3 prostate
[19] = tested on: SK-MEL-5 melanoma
[20] = tested on: SN12C renal
[21] = tested on: T-47D breast
[22] = tested on: RXF 393 renal
[23] = tested on: DU-145 prostate
[24] = tested on: M14 melanoma
[25] = tested on: K-562 leukemia
[26] = tested on: HL-60(TB) leukemia
[27] = tested on: A498 renal
[28] = tested on: HCT-15 colon
[29] = tested on: SNB-19 CNS
[30] = tested on: LOX IMVI melanoma
[31] = tested on: SK-MEL-2 melanoma
[32] = tested on: HT29 colon
[33] = tested on: SW-620 colon
[34] = tested on: ACHN renal
[35] = tested on: UO-31 renal
[36] = tested on: NCI-H23 lung
[37] = tested on: NCI-H522 lung
[38] = tested on: SF-295 CNS
[39] = tested on: SF-539 CNS
[40] = tested on: SF-268 CNS
[41] = tested on: HCC-2998 colon
[42] = tested on: KM12 colon
[43] = tested on: HCT-116 colon
[44] = tested on: SNB-75 CNS
[45] = tested on: RPMI-8226 leukemia
[46] = tested on: HOP-92 NSCLC
[47] = tested on: HOP-62 NSCLC
[48] = tested on: TK-10 renal
[49] = tested on: OVCAR-3 ovarian
[50] = tested on: NCI-H226 lung
[51] = tested on: HS 578T breast
[52] = tested on: MALME-3M melanoma
[53] = tested on: MDA-MB-435
[54] = tested on: U251 CNS
[55] = tested on: COLO 205 colon
[56] = tested on: IGROV1 ovarian
[57] = tested on: UACC-257 melanoma
[58] = tested on: SR leukemia

CCCCCCCCCCCCCCCCCC[n+]1ccc2c(C)c3c(c(C)c2c1)c1cc(O)ccc1n3CC
GI50 [1]: 0.954 µM
TGI [1]: 12 µM
GI50 [2]: 2.72 µM
TGI [2]: 10.5 µM
GI50 [3]: 3.27 µM
TGI [3]: 34.2 µM
GI50 [4]: 2.76 µM
TGI [4]: 12.7 µM
GI50 [5]: 1.29 µM
TGI [5]: 3.38 µM
GI50 [6]: 1.91 µM
TGI [6]: 4.98 µM
GI50 [7]: 1.28 µM
TGI [7]: 5.47 µM
GI50 [8]: 2.75 µM
TGI [8]: 17.1 µM
GI50 [9]: 4.38 µM
TGI [9]: 24.8 µM
GI50 [10]: 1.72 µM
TGI [10]: 4.18 µM
GI50 [11]: 11.5 µM
TGI [11]: 28.7 µM
GI50 [12]: 2.21 µM
TGI [12]: 10.4 µM
GI50 [13]: 10.8 µM
TGI [13]: 39 µM
GI50 [14]: 1.84 µM
TGI [14]: 7.6 µM
GI50 [15]: 2.53 µM
TGI [15]: 14.9 µM
GI50 [16]: 2.15 µM
TGI [16]: 9.93 µM
GI50 [17]: 1.71 µM
TGI [17]: 6.53 µM
GI50 [18]: 1.3 µM
TGI [18]: 11 µM
GI50 [19]: 1.34 µM
TGI [19]: 2.85 µM
GI50 [20]: 1.79 µM
TGI [20]: 6.08 µM
GI50 [21]: 2.57 µM
TGI [21]: 27.3 µM
GI50 [22]: 1.57 µM
TGI [22]: 3.89 µM
GI50 [23]: 1.87 µM
TGI [23]: 5.64 µM
GI50 [24]: 1.43 µM
TGI [24]: 3.34 µM
GI50 [25]: 1.1 µM
TGI [25]: 9.13 µM
GI50 [26]: 2.33 µM
TGI [26]: 12.4 µM
GI50 [27]: 1.19 µM
TGI [27]: 3.86 µM
GI50 [28]: 3.34 µM
TGI [28]: 47.1 µM
GI50 [29]: 1.79 µM
TGI [29]: 6.36 µM
GI50 [30]: 2.73 µM
TGI [30]: 10.3 µM
GI50 [31]: 1.58 µM
TGI [31]: 3.27 µM
GI50 [32]: 1.14 µM
TGI [32]: 15.2 µM
GI50 [33]: 1.79 µM
TGI [33]: 7.1 µM
GI50 [34]: 3.51 µM
TGI [34]: 19.6 µM
GI50 [35]: 3.39 µM
TGI [35]: 18.7 µM
GI50 [36]: 0.912 µM
TGI [36]: 6.57 µM
GI50 [37]: 1.89 µM
TGI [37]: 18.1 µM
GI50 [38]: 1.42 µM
TGI [38]: 4.3 µM
GI50 [39]: 2.2 µM
TGI [39]: 5.59 µM
GI50 [40]: 1.95 µM
TGI [40]: 5.11 µM
GI50 [41]: 2.9 µM
TGI [41]: 20.6 µM
GI50 [42]: 2.01 µM
TGI [42]: > 100 µM
GI50 [43]: 1.19 µM
TGI [43]: 12.7 µM
GI50 [44]: 2.27 µM
TGI [44]: 12 µM
GI50 [45]: 1.58 µM
TGI [45]: 17.5 µM
GI50 [46]: 1.64 µM
TGI [46]: 5.68 µM
GI50 [47]: 2.66 µM
TGI [47]: 10.4 µM
GI50 [48]: 1.49 µM
TGI [48]: 4.13 µM
GI50 [49]: 1.88 µM
TGI [49]: 4.68 µM
GI50 [50]: 1.88 µM
TGI [50]: 8.68 µM
GI50 [51]: 2.23 µM
TGI [51]: 7.79 µM

CNCCCNCCCCNCCCN1C(=O)c2ccc3c4c(ccc(c24)C1=O)C(=O)N(CCCNCc1ccccc1OC)C3=O
GI50 [1]: 1.7 µM
TGI [1]: 9.19 µM
GI50 [2]: 3.4 µM
TGI [2]: 15.8 µM
GI50 [52]: 0.939 µM
TGI [52]: 3.05 µM
GI50 [3]: 3.77 µM
TGI [3]: 39 µM
GI50 [4]: 4.63 µM
TGI [4]: 70.2 µM
GI50 [5]: 0.711 µM
TGI [5]: 5.06 µM
GI50 [6]: 1.4 µM
TGI [6]: 10.1 µM
GI50 [7]: 3.45 µM
TGI [7]: 20.2 µM
GI50 [53]: 0.795 µM
TGI [53]: 6.21 µM
GI50 [8]: 2.77 µM
TGI [8]: 13 µM
GI50 [9]: 5.35 µM
TGI [9]: 26.9 µM
GI50 [10]: 2.53 µM
TGI [10]: 12.1 µM
GI50 [11]: 2.25 µM
TGI [11]: 24.4 µM
GI50 [12]: 3.36 µM
TGI [12]: 29.8 µM
GI50 [13]: 7.09 µM
TGI [13]: > 100 µM
GI50 [14]: 6.19 µM
TGI [14]: 61.5 µM
GI50 [15]: 5.21 µM
TGI [15]: 38.5 µM
GI50 [54]: 3.24 µM
TGI [54]: 18 µM
GI50 [17]: 2.89 µM
TGI [17]: 54.6 µM
GI50 [18]: 7.45 µM
TGI [18]: 44.4 µM
GI50 [19]: 0.813 µM
TGI [19]: 3 µM
GI50 [20]: 2.95 µM
TGI [20]: 20.5 µM
GI50 [21]: 0.342 µM
TGI [21]: 5.97 µM
GI50 [22]: 3.82 µM
TGI [22]: 19.3 µM
GI50 [23]: 5.09 µM
TGI [23]: 17.3 µM
GI50 [55]: 1.38 µM
TGI [55]: 8.16 µM
GI50 [24]: 2.63 µM
TGI [24]: 13.3 µM
GI50 [25]: 2.78 µM
TGI [25]: 34.6 µM
GI50 [26]: 3.68 µM
TGI [26]: 23.4 µM
GI50 [27]: 1.78 µM
TGI [27]: 13.3 µM
GI50 [28]: 4.27 µM
TGI [28]: 70.1 µM
GI50 [29]: 3.79 µM
TGI [29]: 17.2 µM
GI50 [30]: 3.03 µM
TGI [30]: 14 µM
GI50 [31]: 4.46 µM
TGI [31]: 18.8 µM
GI50 [32]: 3.36 µM
TGI [32]: 16.4 µM
GI50 [33]: 2.16 µM
TGI [33]: 15.8 µM
GI50 [34]: 2.86 µM
TGI [34]: 30.1 µM
GI50 [35]: 4.31 µM
TGI [35]: 36.8 µM
GI50 [36]: 2.99 µM
TGI [36]: 19.1 µM
GI50 [37]: 5.62 µM
TGI [37]: 27.2 µM
GI50 [38]: 1.33 µM
TGI [38]: 12.8 µM
GI50 [39]: 2.04 µM
TGI [39]: 6.82 µM
GI50 [56]: 3.02 µM
TGI [56]: 19 µM
GI50 [57]: 1.25 µM
TGI [57]: 8.07 µM
GI50 [40]: 3.51 µM
TGI [40]: 44.3 µM
GI50 [41]: 3.12 µM
TGI [41]: 20.2 µM
GI50 [42]: 2.75 µM
TGI [42]: 17.4 µM
GI50 [43]: 2.04 µM
TGI [43]: 21.1 µM
GI50 [44]: 1.05 µM
TGI [44]: 13.3 µM
GI50 [45]: 3 µM
TGI [45]: 22.8 µM
GI50 [46]: 2.21 µM
TGI [46]: 18.9 µM
GI50 [58]: 4.42 µM
TGI [58]: 43.9 µM
GI50 [47]: 2.33 µM
TGI [47]: 25.6 µM
GI50 [48]: 4.08 µM
TGI [48]: 43.5 µM
GI50 [49]: 2.93 µM
TGI [49]: 11.3 µM
GI50 [50]: 2.17 µM
TGI [50]: 21.3 µM
GI50 [51]: 2.9 µM
TGI [51]: 22 µM
